Measured values: ChEMBL document CHEMBL5126628, “Aspersterols A-D, Ergostane-Type Sterols with an Unusual Unsaturated Side Chain from the Deep-Sea-Derived Fungus Aspergillus unguis” (J Nat Prod, 2022)
Structures can show the parent of a compound that is named as a salt. One block for each molecule: values may come before it.

What was measured:
HCT-15 = experiment: Growth inhibition of human HCT-15 cells by SRB assay; format: functional
NUGC-3 = experiment: Growth inhibition of human NUGC-3 cells by SRB assay; format: functional
NCI-H23 = experiment: Growth inhibition of human NCI-H23 cells by SRB assay; format: functional
ACHN = experiment: Growth inhibition of human ACHN cells by SRB assay; format: functional
PC-3 = experiment: Growth inhibition of human PC-3 cells by SRB assay; format: functional
MDA-MB-231 = experiment: Growth inhibition of human MDA-MB-231 cells by SRB assay; format: functional
RAW264.7 [1] = experiment: Antiinflammatory activity in mouse RAW264.7 cells assessed as reduction in LPS-induced nitric oxide production by griess assay; format: functional, cell-based
RAW264.7 [2] = experiment: Antiinflammatory activity in mouse RAW264.7 cells assessed as reduction in LPS-induced IL6 production […]; format: functional, cell-based; settings: DDE = dose-dependent effect
RAW264.7 [3] = experiment: Antiinflammatory activity in mouse RAW264.7 cells assessed as reduction in LPS-induced nitrite production by griess assay; format: functional, cell-based; settings: DDE = dose-dependent effect
RAW264.7 [4] = experiment: Antiinflammatory activity in mouse RAW264.7 cells assessed as reduction in LPS-induced IL6 mRNA expression […]; format: functional, cell-based; settings: DDE = dose-dependent effect
RAW264.7 [5] = experiment: Antiinflammatory activity in mouse RAW264.7 cells assessed as reduction in LPS-induced iNOS mRNA expression […]; format: functional, cell-based; settings: DDE = dose-dependent effect

SMILES: CC(/C=C/[C@H](C)C(C)C)=C1\CC[C@H]2C3=CC(=O)[C@@]4(O)C[C@@H](O)CC[C@]4(C)[C@@]3(O)CC[C@]12C
GI50 (HCT-15): > 30 µM
GI50 (NUGC-3): > 30 µM
GI50 (NCI-H23): > 30 µM
GI50 (ACHN): > 30 µM
GI50 (PC-3): > 30 µM
GI50 (MDA-MB-231): > 30 µM
IC50 (RAW264.7 [1]): 19.5 µM

SMILES: CC(/C=C/[C@H](C)C(C)C)=C1\[C@H](O)C[C@H]2c3cc4c(c(C)c3CC[C@]12C)CC[C@H](O)C4
GI50 (HCT-15): 4.5 µM
GI50 (NUGC-3): 4.2 µM
GI50 (NCI-H23): 4.4 µM
GI50 (ACHN): 4.3 µM
GI50 (PC-3): 3.9 µM
GI50 (MDA-MB-231): 3.4 µM

SMILES: CC(/C=C/[C@H](C)C(C)C)=C1\CC[C@H]2C3=CC(=O)[C@@]4(O)C[C@@H](O)CC[C@]4(C)[C@H]3CC[C@]12C
GI50 (HCT-15): 13.2 µM
GI50 (NUGC-3): 11.5 µM
GI50 (NCI-H23): 10.3 µM
GI50 (ACHN): 12.5 µM
GI50 (PC-3): 13.8 µM
GI50 (MDA-MB-231): 13.5 µM
IC50 (RAW264.7 [1]): 11.6 µM
inhibition (RAW264.7 [2]): Dde
inhibition (RAW264.7 [3]): Dde
inhibition (RAW264.7 [4]): Dde
inhibition (RAW264.7 [5]): Dde

Now from value to molecule, other results behind:

GI50 (HCT-15): > 30 µM
GI50 (NCI-H23): > 30 µM
GI50 (ACHN): > 30 µM
GI50 (PC-3): > 30 µM
GI50 (MDA-MB-231): > 30 µM
IC50 (RAW264.7 [1]): 14.5 µM
SMILES: CC(/C=C/[C@H](C)C(C)C)=C1\[C@H](O)C[C@H]2C3=CC(=O)[C@@]4(O)C[C@@H](O)CC[C@]4(C)[C@H]3CC[C@]12C
GI50 (NUGC-3): > 30 µM

GI50 (HCT-15): 0.09 µM
GI50 (NCI-H23): 0.08 µM
GI50 (ACHN): 0.07 µM
GI50 (PC-3): 0.09 µM
GI50 (MDA-MB-231): 0.08 µM
SMILES: COc1cccc2c1C(=O)c1c(O)c3c(c(O)c1C2=O)C[C@@](O)(C(=O)CO)C[C@@H]3O[C@H]1C[C@H](N)[C@H](O)[C@H](C)O1 [DOXORUBICIN HYDROCHLORIDE]
GI50 (NUGC-3): 0.08 µM
